Like-named read-outs stand apart in the source and are kept apart here.
Tests used:
[1] = target: T1, glutathione-S-transferase (GST) tagged LXRalpha LBD (ligand binding domain) (Homo sapiens, UniProt Q13133); test: biochemical
T1 construct: purchased Invitrogen pv4655
T1 sequence (Q13133 209-447 limits assumed): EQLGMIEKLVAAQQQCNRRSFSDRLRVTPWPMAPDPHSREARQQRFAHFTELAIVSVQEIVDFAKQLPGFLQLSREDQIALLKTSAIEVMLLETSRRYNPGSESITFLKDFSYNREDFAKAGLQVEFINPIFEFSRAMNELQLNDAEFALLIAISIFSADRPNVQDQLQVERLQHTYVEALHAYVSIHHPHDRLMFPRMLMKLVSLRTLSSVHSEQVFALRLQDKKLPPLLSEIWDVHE
Description: (§1) While running the LanthaScreen™ TR-FRET Liver X Receptor Coactivator Assay, LXR alpha-LBD or LXR beta-LBD was added to ligand test compounds followed by addition of a mixture of a fluorescein-labelled coactivator peptide and terbium-conjugated anti-GST antibody. After an incubation period at room temperature, TR-FRET (time-resolved fluorescence resonance energy transfer) was measured using a filter-based instrument capable of TR-FRET, e.g. PerkinElmer Envision.

[2] = target: T2, glutathione-S-transferase (GST) tagged LXRbeta LBD (ligand binding domain) (Homo sapiens, UniProt P55055); test: LanthaScreen TR-FRET Liver X Receptor Coactivator Assay, LXR beta; format: biochemical; conditions: for EC50: LXR beta IP, potency (Inflection Point), compound-induced co-activator recruitment, TR-FRET; for Emax: read-out: LXR beta actiivty at max dose, efficacy (% Emax) in relation to reference dual agonist T0901317
T2 construct: purchased Invitrogen pv4658
T2 sequence (P55055 222-460 limits assumed): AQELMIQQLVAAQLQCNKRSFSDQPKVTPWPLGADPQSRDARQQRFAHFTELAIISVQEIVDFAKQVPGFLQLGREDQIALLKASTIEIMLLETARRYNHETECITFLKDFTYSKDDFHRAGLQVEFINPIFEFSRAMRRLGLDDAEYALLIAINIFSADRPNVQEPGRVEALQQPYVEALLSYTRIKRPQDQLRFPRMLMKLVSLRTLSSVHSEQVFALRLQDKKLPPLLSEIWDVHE
Description: as §1

[3] = LXR alpha IP, potency (Inflection Point), compound-induced co-activator recruitment, TR-FRET
[4] = read-out: LXR alpha actiivty at max dose, efficacy (% Emax) in relation to reference dual agonist T0901317
[5] = potency (Inflection Point), compound-induced co-activator recruitment, TR-FRET

| Structure (SMILES) | EC50 [1, 3] | Emax [1, 4] | EC50 [2] | Emax [2] | EC50 ([1]; potency (Inflection Point), compound-induced co-activator recruitment, TR-FRET, read-out: LXR alpha IP) | LXR alpha IP [1, 5] | EC50 ([1]; LXR alpha IP) | Emax ([1]; read-out: LXR alpha actiivty at max dose) | LXR beta actiivty at max dose ([2]; efficacy (% Emax) in relation to reference dual agonist T0901317) |
| --- | --- | --- | --- | --- | --- | --- | --- | --- | --- |
| CN(C)C(=O)c1ccc(OCCCCC2CCN(S(=O)(=O)c3ccccc3C(F)(F)F)CC2)nc1Cl [Example 7-1, 2-chloro-N,N-dimethyl-6-(4-(1-(2-(trifluoromethyl)phenylsulfonyl)piperidin-4-yl)butoxy)nicotinamide] | 776 nM | 82% | 36 nM | 138% | – | – | – | – | – |
| CN(C)C(=O)c1ccc(OCCC2CC23CCN(C(=O)C2(c4ccc(Br)cc4)COC2)CC3)cc1Cl (single isomer, unassigned) [Example 12-12, (S or R)-4-(2-(6-(3-(4-bromophenyl)oxetane-3-carbonyl)-6-azaspiro[2.5]octan-1-yl)ethoxy)-2-chloro-N,N-dimethylbenzamide] | – | 28% | 81 nM | 60% | – | No IP | – | – | – |
| CN(C)C(=O)c1ccc(OCC[C@@H]2CC23CCN(C(=O)C2(c4ccccc4Br)CCC2)CC3)cc1Cl (single isomer, unassigned) [Example 12-17, (S or R)-4-(2-(6-(1-(2-bromophenyl)cyclobutanecarbonyl)-6-azaspiro[2.5]octan-1-yl)ethoxy)-2-chloro-N,N-dimethylbenzamide] | 166 nM | 35% | 9 nM | 79% | – | – | – | – | – |
| O=C(NC1CC1)c1ccc(OCCCCC2CCN(C(=O)[C@](O)(c3ccccc3)C(F)(F)F)CC2)cc1Cl (single isomer, unassigned) [Example 8-2, (R or S)-2-chloro-N-cyclopropyl-4-(4-(1-(3,3,3-trifluoro-2-hydroxy-2-phenylpropanoyl)piperidin-4-yl)butoxy) benzamide] | 527 nM | 29% | 13 nM | 68% | – | – | – | – | – |
| CN(C)C(=O)c1ccc(OCCC2CC23CCN(C(=O)C(C)(C)c2cccc(Br)n2)CC3)cc1Cl (single isomer, unassigned) [Example 12-20, (S or R)-4-(2-(6-(2-(6-bromopyridin-2-yl)-2-methylpropanoyl)-6-azaspiro[2.5]octan-1-yl)ethoxy)-2-chloro-N,N-dimethylbenzamide] | – | 0% | 47 nM | 32% | – | No IP | – | – | – |
| CN(C)C(=O)c1ccc(O[C@H]2C[C@@H](CC3CCN(C(=O)[C@](O)(c4cccc(C(F)(F)F)c4)C(F)(F)F)CC3)C2)cc1Cl (single isomer, unassigned) [Example 37-6, 2-chloro-N,N-dimethyl-4-((1R,3s)-3-((1-((R or S)-3,3,3-trifluoro-2-hydroxy-2-(3-(trifluoromethyl)phenyl)propanoyl)piperidin-4-yl)methyl)cyclobutoxy) benzamide] | 602 nM | 31% | 15 nM | 119% | – | – | – | – | – |
| CC(C)N(C)C(=O)c1ccc(OCCCCC2CCN(C(=O)[C@](O)(c3ccccc3)C(F)(F)F)CC2)cc1Cl (single isomer, unassigned) [Example 8-17, (R or S)-2-chloro-N-isopropyl-N-methyl-4-(4-(1-(3,3,3-trifluoro-2-hydroxy-2-phenylpropanoyl)piperidin-4-yl)butoxy) benzamide] | – | 10% | 17 nM | 50% | – | No IP | – | – | – |
| Cc1nnc(C(C)(C)C(=O)N2CCC3(CC2)CC3CCOc2ccc(C(=O)N(C)C)c(Cl)c2)s1 (single isomer, unassigned) [Example 12-2, (R or S)-2-chloro-N,N-dimethyl-4-(2-(6-(2-methyl-2-(5-methyl-1,3,4-thiadiazol-2-yl)propanoyl)-6-azaspiro[2.5]octan-1-yl)ethoxy)benzamide] | 10500 nM | 52% | 661 nM | 57% | – | – | – | – | – |
| CN(C)C(=O)c1ccc(OCCC2CC23CCN(C(=O)C2(c4ccccc4Cl)CCC2)CC3)cc1Cl (single isomer, unassigned) [Example 12-5, (R or S)-2-chloro-4-(2-(6-(1-(2-chlorophenyl)cyclobutanecarbonyl)-6-azaspiro[2.5]octan-1-yl)ethoxy)-N,N-dimethylbenzamide] | 91 nM | 49% | 3 nM | 54% | – | – | – | – | – |
| CCc1nc(OCCCCC2CCN(C(=O)C(O)(c3ccccc3)C(F)(F)F)CC2)ccc1C(=O)N(C)C (stereo not drawn) [Example 5-2, 2-ethyl-N,N-dimethyl-6-(4-(1-(3,3,3-trifluoro-2-hydroxy-2-phenylpropanoyl)piperidin-4-yl)butoxyl)nicotinamide] | – | – | 63 nM | 77% | – | – | – | – | – |
| CN(C)C(=O)c1ccc(OCCCCC2CCN(C(=O)C(O)(c3ccccc3)C(F)(F)F)CC2)nc1Cl (single isomer, unassigned) [Example 3-17, (S or R)-2-chloro-N,N-dimethyl-6-(4-(1-(3,3,3-trifluoro-2-hydroxy-2-phenylpropanoyl)piperidin-4-yl)butoxy)nicotinamide] | – | – | 8 nM | – | – | – | – | – | 74% |
| CN(C)C(=O)c1ccc(OCCCCC2CCN(C(=O)C(O)(c3ccccc3)C(F)(F)F)CC2)nc1Cl (single isomer, unassigned) [Example 3-16, (R or S)-2-chloro-N,N-dimethyl-6-(4-(1-(3,3,3-trifluoro-2-hydroxy-2-phenylpropanoyl)piperidin-4-yl)butoxy)nicotinamide] | – | – | 259 nM | 83% | – | – | – | – | – |

The next lines start with results.

| EC50 [1, 3] | Emax [1, 4] | EC50 [2] | Emax [2] | EC50 ([1]; potency (Inflection Point), compound-induced co-activator recruitment, TR-FRET, read-out: LXR alpha IP) | LXR alpha IP [1, 5] | EC50 ([1]; LXR alpha IP) | Emax ([1]; read-out: LXR alpha actiivty at max dose) | Structure (SMILES) | LXR beta actiivty at max dose ([2]; efficacy (% Emax) in relation to reference dual agonist T0901317) |
| --- | --- | --- | --- | --- | --- | --- | --- | --- | --- |
| – | 32% | 65 nM | 115% | 654 nM | – | – | – | CN(C)C(=O)c1ccc(OCCC[C@@H]2CC23CCN(C(=O)[C@@](O)(c2ccccc2)C(F)(F)F)CC3)nc1Cl (single isomer, unassigned) [Example 15-2, 2-chloro-N,N-dimethyl-6-(3-((R or S)-6-((S or R)-3,3,3-trifluoro-2-hydroxy-2-phenylpropanoyl)-6-azaspiro[2.5]octan-1-yl)propoxy)nicotinamide] | – |
| 284 nM | 27% | 25 nM | 56% | – | – | – | – | CC(COc1ccc(C(=O)N(C)C)c(Cl)c1)CC(C)C1CCN(C(=O)C(O)(c2ccccc2)C(F)(F)F)CC1 (single isomer, unassigned) [Example 31-1, 2-chloro-N,N-dimethyl-4-(2-methyl-4-(1-((R or S)-3,3,3-trifluoro-2-hydroxy-2-phenylpropanoyl)piperidin-4-yl)pentyloxy)benzamide] | – |
| 209 nM | 13% | 7 nM | 75% | – | – | – | – | CNC(=O)c1ccc(OCC[C@@H]2C[C@@H]2C2CCN(C(=O)[C@](O)(c3cccc(OC)c3)C(F)(F)F)CC2)cc1Cl (single isomer, unassigned) [Example 10-5, 2-chloro-N-methyl-4-(2-((1S,2R or 1R, 2S)-2-(1-((R or S)-3,3,3-trifluoro-2-hydroxy-2-(3-methoxyphenyl)propanoyl)piperidin-4-yl)cyclopropyl)ethoxy) benzamide] | – |
| – | – | 25 nM | 51% | – | – | 663 nM | 22% | COc1cccc(C(O)(C(=O)N2CCC3(CCC(Oc4ccc(C(=O)N(C)C)c(Cl)c4)CC3)CC2)C(F)(F)F)c1 (single isomer, unassigned) [Example 1-1, 2-chloro-N,N-dimethyl-4-(3-((R or S)-3,3,3-trifluoro-2-hydroxy-2-(3-methoxyphenyl)propanoyl)-3-azaspiro[5.5]undecan-9-yloxy)benzamide] | – |
| 328 nM | 10% | 33 nM | 55% | – | – | – | – | O=C(c1ccc(OCCCCC2CCN(C(=O)C(O)(c3ccccc3)C(F)(F)F)CC2)cc1Cl)N1CCC1 (single isomer, unassigned) [Example 8-1, (R or S)-1-(4-(4-(4-(azetidine-1-carbonyl)-3-chlorophenoxy)butyl)piperidin-1-yl)-3,3,3-trifluoro-2-hydroxy-2-phenylpropan-1-one] | – |
| – | 0% | 50 nM | 65% | – | No IP | – | – | CN(C)C(=O)c1ccc(OCC[C@H]2CC23CCN(C(=O)[C@](N)(c2ccccc2)C(F)(F)F)CC3)cc1Cl (single isomer, unassigned) [Example 12-9, 4-(2-((R or S)-6-((R or S)-2-amino-3,3,3-trifluoro-2-phenylpropanoyl)-6-azaspiro[2.5]octan-1-yl)ethoxy)-2-chloro-N,N-dimethylbenzamide] | – |
